This passage reports Ki results from patent publication US12486278B2, “MASP-2 inhibitors and methods of use” (Omeros Corporation, priority 2019, dated 2025).

Structures are written as SMILES. Where a name gives a salt, the structure may show the parent alone. Bounds are passed on as bounds.

T1 sequence (O00187 445-686 limits assumed): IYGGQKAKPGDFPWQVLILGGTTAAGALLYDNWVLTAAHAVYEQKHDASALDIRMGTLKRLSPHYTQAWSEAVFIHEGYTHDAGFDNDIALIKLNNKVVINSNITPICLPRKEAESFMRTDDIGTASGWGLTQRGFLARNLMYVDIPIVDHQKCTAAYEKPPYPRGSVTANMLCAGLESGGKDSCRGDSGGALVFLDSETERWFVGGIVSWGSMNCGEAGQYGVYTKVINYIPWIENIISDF
T1 sequence (O00187 298-444 partner limits assumed): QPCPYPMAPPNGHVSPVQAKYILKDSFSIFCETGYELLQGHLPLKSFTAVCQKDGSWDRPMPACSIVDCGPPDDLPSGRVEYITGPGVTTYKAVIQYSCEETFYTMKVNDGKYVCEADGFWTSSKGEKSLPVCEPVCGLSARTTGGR

The assay addresses T1, MASP-2 (CCP1-CCP2-SP) (Homo sapiens, UniProt O00187).
T1 construct: 15 μL of Enzyme MASP-2 (CCP1-CCP2-SP) in Assay Buffer
Nature of the assay: Enzymatic Assay for MASP-2 (fluorogenic substrate). The format is biochemical. To be noted: fluorogenic substrate based on C2 cleavage site; room temperature, 20 min; 20 mM HEPES pH 7.4, 140 mM NaCl, 0.1% Tween 20. The method, boiled down:
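Fluorogenic substrate built on the C2 cleavage site, in 20 mM HEPES pH 7.4, 140 mM NaCl, 0.1% Tween 20, run at room temperature for 20 min before an acetic acid stop. Fluorescence normalised to DMSO-only and no-enzyme controls; IC50 taken as equivalent to Ki, with tight- or slow-binding inhibitors treated separately.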
One may read the Ki as a dissociation constant, usually derived from enzyme kinetics or from competition with a known ligand. High values mean lower affinity, low ones higher affinity. `C[C@H](NC(=O)[C@H]1C[C@@H](c2cccc(-n3cccn3)c2)CCN1)C(=O)NCc1ccc(C(=N)N)cc1` [Compound I-77, (2R,4S)-4-(3-(1H-Pyrazol-1-Yl)Phenyl)-N—((S)-1-((4-Carbamimidoylbenzyl)Amino)-1-Oxopropan-2-Yl)Piperidine-2-Carboxamide Dihydrochloride] showed a Ki of less than 500 nM.

Compound `C[C@H](NC(=O)[C@H]1C[C@@H](c2ccccc2)CCN1)C(=O)NCc1cc2c(s1)CNC2` [Compound I-98, (2R,4S)—N—((S)-1-(((5,6-Dihydro-4H-Thieno[2,3-C]Pyrrol-2-Yl)Methyl)Amino)-1-Oxopropan-2-Yl)-4-Phenylpiperidine-2-Carboxamide Di-Trifluoroacetate Salt] came in with a Ki of less than 500 nM.

`C[C@H](NC(=O)[C@H]1C[C@H](Cc2cc(Cl)c(Cl)s2)CN1)C(=O)NCc1cnc2c(c1)c(Cl)cn2C` [Compound I-20, Trifluoroacetate] registered a Ki of less than 500 nM.

In turn, `C[C@H](NC(=O)[C@H]1C[C@H](Cc2ccccc2)CN1)C(=O)NCc1ccc2c(c1)ncn2C` [Compound I-30, (2R,4S)-4-Benzyl-N—((S)-1-(((1-Methyl-1H-Benzo[D]Imidazol-5-Yl)Methyl)Amino)-1-Oxopropan-2-Yl)Pyrrolidine-2-Carboxamide Trifluoroacetate] returned a Ki of 2500 to 10000 nM.
